From patent US20180000778A1, “SMALL MOLECULE ANTAGONISTS OF DUSP5 AND METHODS OF USE” (THE MEDICAL COLLEGE OF WISCONSIN, INC., priority 2015, published 2018) come the findings set out here.

Test [1] addresses T1, DUSP5 PD(WT) (Homo sapiens, UniProt Q16690).
T1 construct: hexa-histidine (N); made in house; host or cells: E. coli BL21(DE3)
T1 sequence (Q16690 178-319 limits assumed): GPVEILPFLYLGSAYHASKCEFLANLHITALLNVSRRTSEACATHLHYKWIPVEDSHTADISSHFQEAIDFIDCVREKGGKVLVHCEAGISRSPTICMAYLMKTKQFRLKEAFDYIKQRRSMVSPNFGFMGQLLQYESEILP
As to the kind of experiment: pNPP phosphatase activity assay with DUSP5 PD(WT). The format is biochemical. The source says: p-Nitrophenolphosphatase (pNPP) Activity Assay.
To measure enzymatic activity of the DUSP5 PD and the inhibitory capacity of selected molecules, an in vitro phosphatase assay was developed based on previous studies (27). In this assay, DUSP5 PD dephosphorylates the substrate p-nitrophenol phosphate (pNPP, Sigma Aldrich), yielding p-nitrophenolate, which absorbs at 405 nm with an extinction coefficient of 18,000 M-1 cm-1.
Thus, an increase in absorbance at 405 nm corresponds to the turnover of pNPP top-nitrophenolate. The assay was initially optimized in 1 mL quartz cuvettes, then was subsequently optimized for and validated in a 96-well plate format. All IC50 values were obtained using the 96-well plate assay format (see below). The assay buffer contained 100 mM Tris, 100 mM sodium chloride, 5 mM magnesium chloride, and 1 mM dithiothreitol (DTT) at pH 7.5. The pNPP substrate was prepared as a 50 mM stock by dissolving the solid substrate in assay buffer. The DUSP5 PD and pNPP were assayed initially in a cuvette (1 mL total volume) and initial velocities were fitted to the Michaelis-Menten equation (1)
where v is the initial velocity, Vmax is the maximum velocity, Km is the Michaelis constant, and [S] is the concentration of pNPP. Data were fitted using a nonlinear least squares fit to eq. 1, with GraphPad Prism 6 software.
For the 96-well plate validation assay, sodium orthovanadate (Sigma Aldrich) was utilized as a positive control for inhibition (Swarup et al., Biochem Biophys Res Commun. 1982; 107:1104-9.) at a final concentration of 10 μM, to completely block activity. All plate assays were performed in standard 96-well clear bottom plates (Thermo Scientific Nunc) with a total assay volume of 200 μL, using a SpectraMax M5 Microplate Reader (Molecular Devices). The plate validation assay was performed with replicate columns of positive control wells, negative control wells and blank wells. Blank columns contained only buffer and pNPP. Negative control (uninhibited) contained buffer, pNPP, and DUSP5 PD; and, positive control contained the same components, but also contained 10 μM sodium orthovanadate. The plate was then shaken and allowed to equilibrate in the spectrophotometer at 25° C. for 30 min. After incubation, 4 μL of a […] was dispensed into appropriate wells utilizing a single-channel pipette. This produced a final enzyme concentration of 1 μM. Before a read was taken, the plate was shaken for five seconds. The initial rate for the DUSP5 PD reaction was linear for approximately 90 min; and, the plate was kept in the spectrophotometer at 25° C. for an additional 80 min after the kinetic read. The endpoint reading was subsequently taken at 90 min after initiation of reaction. Slopes from the kinetic read, as well as single-point absorbance values at the 90-minute endpoint read, were then averaged. For blank wells and positive control wells, both slope values (continuous assay) and single point absorbance values (fixed time assay) were approximately zero, as expected. Standard deviations were calculated and a Z′ value (Zhang et al., J Biomol Screening. 1999; 4:67-73) subsequently determined using the following equation: […]
IC50 values were obtained using the assay described above, in 96 well plates. The maximum inhibitor concentration screened in any plate was […] and the minimum was 1.5 μM. The IC50 plate was designed so that the first column of wells served as blanks, with wells containing only buffer and substrate. The second column of wells functioned as the plate negative control, with each well containing buffer, substrate and enzyme. The remaining wells in the plate contained buffer, substrate, enzyme, and varying amounts of inhibitor, with inhibitor concentration increasing from left to right across the plate. Data points were collected in triplicate, and inhibitor concentrations were chosen to provide data equally spread on a logarithmic scale. […]

Test [2] addresses T2, full-length DUSP5 (Homo sapiens, UniProt Q16690).
T2 construct: an assay was development using ERK2 and full-length DUSP5
T2 sequence (Q16690 1-384): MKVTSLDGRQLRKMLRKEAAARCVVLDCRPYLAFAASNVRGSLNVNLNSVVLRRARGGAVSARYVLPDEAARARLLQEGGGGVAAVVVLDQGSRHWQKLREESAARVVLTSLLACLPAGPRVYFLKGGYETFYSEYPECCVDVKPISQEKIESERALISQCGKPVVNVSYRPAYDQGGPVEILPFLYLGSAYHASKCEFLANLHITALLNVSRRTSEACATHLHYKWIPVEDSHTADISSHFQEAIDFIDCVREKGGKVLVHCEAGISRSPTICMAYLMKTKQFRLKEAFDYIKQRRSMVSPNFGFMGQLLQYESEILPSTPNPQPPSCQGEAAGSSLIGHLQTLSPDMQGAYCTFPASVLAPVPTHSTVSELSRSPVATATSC
The test can be described thus: ERK dephosphorylation assay, full-length DUSP5 with pERK2 substrate, western blot. The format is biochemical. Here is the method:
ERK Dephosphorylation Assay.
For this assay, 10 ng of GST-tagged recombinant phosphorylated ERK2 (R&D Systems, 1230-KS) was incubated with and without the indicated DUSP5 proteins (0.5 nM final concentration) for 15 min at room temperature, with or without the indicated drugs. The reactions were halted with 2× Laemmli sample buffer and subjected to SDS-PAGE. The proteins were transferred to polyvinylidene difluoride (PVDF) and immunoblotted using antibodies to pERK (Cell Signaling Tech., #9106) and Total ERK (Cell Signaling Tech., #9102). Bound antibodies were visualized using horseradish peroxidase-linked anti-mouse IgG (Cell Signaling Tech, #7076S) and anti-rabbit IgG (Cell Signaling Tech, #7074S), respectively, and ECL reagents (Pierce, 34708) according to the manufacturer's protocol. IC50s were calculated using GraphPad Prism 6 software.
And, the native substrate for DUSP5 is the pERK2 protein, which is much larger and capable of a more complicated range of inter-molecular interactions that the pNPP substrate (which is intended only to mimic the phospho-tyrosine of pERK). […] To this end, an assay was development using ERK2 and full-length DUSP5, monitoring pERK levels in a western blot, as a function of pERK2 substrate concentration. […] This surprising increase in potency for CSD3-2320 (but not NTS) with full length DUSP5 underscores the importance of performing secondary assays with biologically relevant forms of enzyme and substrate.
On the technique in general: In western blotting, separated proteins are transferred to a membrane and probed.

As to `O=S(=O)([O-])c1ccc2[nH]c3c(S(=O)(=O)[O-])cc(S(=O)(=O)[O-])cc3c2c1.[Na+].[Na+].[Na+]` [RR505, Carbazole-1,3,6-trisulfonic acid, Trisodium Salt], the “IC50's, range in words” value in test [1] (enzyme inhibition (FIG. 3)) is listed as “mM range”. In test [2] (in vitro, western blot), the “activity in DUSP5:pERK assay, in words” value is “sub-micromolar range”.
`O=S(=O)(O)c1cc(O)c2c(S(=O)(=O)O)cccc2c1` [RR527]: the IC50 – broadly, the concentration that inhibits the measured activity by half – in test [1] (pNPP assay with DUSP5 PD) came to 484 µM; in test [1] (phosphatase domain alone, pNPP) it was 33000 µM; in test [2] (full-length DUSP5, pERK substrate), 0.538 ± 0.271 µM; in test [2] (full-length DUSP5, pERK/ERK2 substrate) it was 33 µM. Further, in test [2] (DUSP5/pERK assay), the “fold increase in IC50 activity compared to NTS” value is listed as 1,000 fold.
